{"source": "patent US9695155B2", "about": "“Herbicidal substituted pyrimidinyloxy benzene compounds” (E. I. DU PONT DE NEMOURS AND COMPANY, priority 2013, dated 2017)", "key": {"giant foxtail": {"test_system": "giant foxtail", "assay": "Test C preemergence", "assay_type": "in vivo, Setaria faberii", "settings": "Setaria faberi, pre-emergence", "procedure,_shortened": "(§1)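 Sown in loam/sand → sprayed pre-emergence; or grown to 1–4 leaves in peat mix → sprayed post-emergence. Same solvent/surfactant formulation both ways. Greenhouse 13–15 d. Score 0–100 visual.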"}, "wild oat": {"test_system": "wild oat", "assay": "Test C postemergence", "assay_type": "in vivo, Avena fatua", "procedure,_shortened": "as §1"}, "barnyardgrass [1]": {"test_system": "barnyardgrass", "assay": "Test A postemergence", "assay_type": "in vivo, Echinochloa crus-galli", "settings": "Echinochloa crus-galli, post-emergence, 240 h, 0 to 100 scale where 0 is no effect and 100 is complete control", "procedure,_shortened": "(§2)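 Scoring: eye-based comparison with untreated controls, 0 for no effect through 100 for complete control, at about day 10. Treatments: directed soil spray preemergence; foliar spray postemergence on 2–10 cm plants at the one- to two-leaf stage. Medium: loam soil with sand.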"}, "barnyardgrass [2]": {"test_system": "barnyardgrass", "assay": "Test C postemergence", "assay_type": "in vivo, Echinochloa crus-galli", "settings": "Echinochloa crus-galli, post-emergence", "procedure,_shortened": "as §1"}, "waterhemp": {"test_system": "waterhemp", "assay": "Test C postemergence", "assay_type": "in vivo, Amaranthus rudis", "procedure,_shortened": "as §1"}, "corn [3]": {"test_system": "corn", "assay": "Test C preemergence", "assay_type": "in vivo, Zea mays", "settings": "Zea mays, pre-emergence", "procedure,_shortened": "as §1"}, "corn [4]": {"test_system": "corn", "assay": "Test A preemergence", "assay_type": "in vivo, Zea mays", "procedure,_shortened": "as §2"}, "johnsongrass": {"test_system": "johnsongrass", "assay": "Test C postemergence", "assay_type": "in vivo, Sorghum halepense", "settings": "Sorghum halepense, post-emergence", "procedure,_shortened": "as §1"}, "velvetleaf": {"test_system": "velvetleaf", "assay": "Test C postemergence", "assay_type": "in vivo, Abutilon theophrasti", "procedure,_shortened": "as §1"}, "Italian ryegrass": {"test_system": "Italian ryegrass", "assay": "Test C postemergence", "assay_type": "in vivo, Lolium multiflorum", "procedure,_shortened": "as §1"}, "sedge, umbrella": {"test_system": "sedge, umbrella", "assay": "Test B flooded paddy test", "assay_type": "in vivo, Cyperus difformis", "settings": "Cyperus difformis, Flood, 250 g ai/ha; 0 to 100 scale where 0 is no effect and 100 is complete control; read-out: Plant response rating, Sedge, Umbrella", "procedure,_shortened": "(§3)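 Greenhouse flooded-pot test: compounds dosed into 3 cm standing water over 2-leaf plants, flood held constant. Rated visually after 13–15 days on 0–100 (complete control = 100); a dash marks no test result.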"}, "pigweed": {"test_system": "pigweed", "assay": "Test C postemergence", "assay_type": "in vivo, Amaranthus retroflexus", "procedure,_shortened": "as §1"}, "morningglory": {"test_system": "morningglory", "assay": "Test A preemergence", "assay_type": "in vivo, Ipomoea spp.", "procedure,_shortened": "as §2"}, "barnyardgrass [5]": {"test_system": "barnyardgrass", "assay": "Test B flooded paddy test", "assay_type": "in vivo, Echinochloa crus-galli", "settings": "Echinochloa crus-galli; Flood, 250 g ai/ha; 0 to 100 scale where 0 is no effect and 100 is complete control; read-out: Plant response rating, Barnyardgrass", "procedure,_shortened": "as §3"}, "yellow nutsedge": {"test_system": "yellow nutsedge", "assay": "Test C postemergence", "assay_type": "in vivo, Cyperus esculentus", "procedure,_shortened": "as §1"}, "[6]": {"settings": "31 g ai/ha, postemergence, visual rating, scale 0 to 100 (0 no effect, 100 complete control), 13 to 15 days"}}, "data": [{"smiles": "FC(F)c1cccc(Oc2ncc(Cl)cn2)c1-n1cc(Br)cn1", "note": "[Compound 194, 2-[2-(4-bromo-1H-pyrazol-1-yl)-3-(difluoromethyl)phenoxy]-5-chloropyrimidine]", "values": [{"measurement": "pest or weed control at 125 g/ha", "setting": "giant foxtail; 125 g ai/ha, preemergence, scale 0 (no effect) to 100 (complete control), read-out: Foxtail, Giant plant response rating", "value": 100, "unit": "%"}, {"measurement": "pest or weed control at 250 g/ha", "setting": "giant foxtail; 250 g ai/ha, preemergence, scale 0 (no effect) to 100 (complete control), read-out: Foxtail, Giant plant response rating", "value": 100, "unit": "%"}, {"measurement": "pest or weed control at 62 g/ha", "setting": "giant foxtail; Preemergence, 62 g ai/ha, scale 0 to 100, 0 no effect, 100 complete control, read-out: Plant response rating, Foxtail, Giant", "value": 90, "unit": "%"}, {"measurement": "Oat, Wild plant response rating", "setting": "wild oat; [6]", "value": 5}, {"measurement": "pest or weed control at 125 g/ha", "setting": "wild oat; Avena fatua, post-emergence, 125 g ai/ha, postemergence, visual rating, scale 0 to 100 (0 no effect, 100 complete control), read-out: Plant response rating, Oat, Wild", "value": 40, "unit": "%"}, {"measurement": "pest or weed control at 250 g/ha", "setting": "wild oat; Avena fatua, post-emergence, 250 g ai/ha, postemergence, read-out: Plant response rating (0 to 100), Oat, Wild", "value": 45, "unit": "%"}, {"measurement": "pest or weed control at 62 g/ha", "setting": "wild oat; Avena fatua, post-emergence, Postemergence, 62 g ai/ha, scale 0 to 100 (0 no effect, 100 complete control), 13 to 15 days, read-out: Plant response rating, Oat, Wild", "value": 15, "unit": "%"}, {"measurement": "pest or weed control at 125 g/ha", "setting": "barnyardgrass [1]; 125 g ai/ha, read-out: Barnyardgrass plant response rating", "value": 80, "unit": "%"}, {"measurement": "pest or weed control at 500 g/ha", "setting": "barnyardgrass [1]; 500 g ai/ha, read-out: Plant response rating, Barnyardgrass", "value": 90, "unit": "%"}, {"measurement": "pest or weed control at 31 g/ha", "setting": "barnyardgrass [2]; 31 g ai/ha, postemergence, visual rating, scale 0 to 100 (0 no effect, 100 complete control), 13 to 15 days, read-out: Barnyardgrass plant response rating", "value": 5, "unit": "%"}, {"measurement": "pest or weed control at 125 g/ha", "setting": "barnyardgrass [2]; 125 g ai/ha, postemergence, visual rating, scale 0 to 100 (0 no effect, 100 complete control), read-out: Plant response rating, Barnyardgrass", "value": 15, "unit": "%"}, {"measurement": "pest or weed control at 250 g/ha", "setting": "barnyardgrass [2]; 250 g ai/ha, postemergence, read-out: Plant response rating (0 to 100), Barnyardgrass", "value": 55, "unit": "%"}, {"measurement": "pest or weed control at 62 g/ha", "setting": "barnyardgrass [2]; Postemergence, 62 g ai/ha, scale 0 to 100 (0 no effect, 100 complete control), read-out: Plant response rating, Barnyardgrass", "value": 5, "unit": "%"}, {"measurement": "Waterhemp plant response rating", "setting": "waterhemp; [6]", "value": 80}, {"measurement": "pest or weed control at 125 g/ha", "setting": "waterhemp; Amaranthus tuberculatus, post-emergence, 125 g ai/ha, postemergence, visual rating, scale 0 to 100 (0 no effect, 100 complete control), read-out: Plant response rating, Waterhemp", "value": 85, "unit": "%"}, {"measurement": "pest or weed control at 250 g/ha", "setting": "waterhemp; Amaranthus tuberculatus, post-emergence, 250 g ai/ha, postemergence, read-out: Plant response rating (0 to 100), Waterhemp", "value": 90, "unit": "%"}, {"measurement": "pest or weed control at 62 g/ha", "setting": "waterhemp; Amaranthus tuberculatus, post-emergence, Postemergence, 62 g ai/ha, scale 0 to 100 (0 no effect, 100 complete control), 13 to 15 days, read-out: Plant response rating, Waterhemp", "value": 80, "unit": "%"}, {"measurement": "plant injury at 125 g/ha", "setting": "corn [3]; 125 g ai/ha, preemergence, scale 0 (no effect) to 100 (complete control), read-out: Corn plant response rating", "value": 15, "unit": "%"}, {"measurement": "plant injury at 250 g/ha", "setting": "corn [3]; 250 g ai/ha, preemergence, scale 0 (no effect) to 100 (complete control), read-out: Corn plant response rating", "value": 25, "unit": "%"}, {"measurement": "Corn plant response rating (crop injury, 0 = no effect, 100 = complete kill) at 62 g/ha", "setting": "corn [3]; Preemergence, 62 g ai/ha, scale 0 to 100, 0 no effect, 100 complete control", "value": 0, "unit": "%"}, {"measurement": "Corn plant response rating (0 to 100 scale)", "setting": "corn [4]; 125 g ai/ha", "value": 30}, {"measurement": "plant injury at 500 g/ha", "setting": "corn [4]; Zea mays, pre-emergence, 240 h, 500 g ai/ha, 0 to 100 scale where 0 is no effect and 100 is complete control, read-out: Corn plant response rating", "value": 50, "unit": "%"}, {"measurement": "pest or weed control at 125 g/ha", "setting": "johnsongrass; 125 g ai/ha, postemergence, visual rating, scale 0 to 100 (0 no effect, 100 complete control), read-out: Plant response rating, Johnsongrass", "value": 25, "unit": "%"}, {"measurement": "pest or weed control at 250 g/ha", "setting": "johnsongrass; 250 g ai/ha, postemergence, read-out: Plant response rating (0 to 100), Johnsongrass", "value": 35, "unit": "%"}, {"measurement": "pest or weed control at 62 g/ha", "setting": "johnsongrass; Postemergence, 62 g ai/ha, scale 0 to 100 (0 no effect, 100 complete control), 13 to 15 days, read-out: Plant response rating, Johnsongrass", "value": 5, "unit": "%"}, {"measurement": "Velvetleaf plant response rating", "setting": "velvetleaf; [6]", "value": 40}, {"measurement": "pest or weed control at 125 g/ha", "setting": "velvetleaf; Abutilon theophrasti, post-emergence, 125 g ai/ha, postemergence, visual rating, scale 0 to 100 (0 no effect, 100 complete control), read-out: Plant response rating, Velvetleaf", "value": 70, "unit": "%"}, {"measurement": "pest or weed control at 250 g/ha", "setting": "velvetleaf; Abutilon theophrasti, post-emergence, 250 g ai/ha, postemergence, read-out: Plant response rating (0 to 100), Velvetleaf", "value": 75, "unit": "%"}, {"measurement": "pest or weed control at 62 g/ha", "setting": "velvetleaf; Abutilon theophrasti, post-emergence, Postemergence, 62 g ai/ha, scale 0 to 100 (0 no effect, 100 complete control), 13 to 15 days, read-out: Plant response rating, Velvetleaf", "value": 45, "unit": "%"}, {"measurement": "Ryegrass, Italian plant response rating", "setting": "Italian ryegrass; [6]", "value": 0}, {"measurement": "pest or weed control at 125 g/ha", "setting": "Italian ryegrass; Lolium multiflorum, post-emergence, 125 g ai/ha, postemergence, visual rating, scale 0 to 100 (0 no effect, 100 complete control), read-out: Plant response rating, Ryegrass, Italian", "value": 0, "unit": "%"}, {"measurement": "pest or weed control at 250 g/ha", "setting": "Italian ryegrass; Lolium multiflorum, post-emergence, 250 g ai/ha, postemergence, read-out: Plant response rating (0 to 100), Ryegrass, Italian", "value": 15, "unit": "%"}, {"measurement": "pest or weed control at 62 g/ha", "setting": "Italian ryegrass; Lolium multiflorum, post-emergence, Postemergence, 62 g ai/ha, scale 0 to 100 (0 no effect, 100 complete control), 13 to 15 days, read-out: Plant response rating, Ryegrass, Italian", "value": 0, "unit": "%"}, {"measurement": "pest or weed control at 250 g/ha", "setting": "sedge, umbrella", "value": 95, "unit": "%"}, {"measurement": "Pigweed plant response rating", "setting": "pigweed; [6]", "value": 75}, {"measurement": "pest or weed control at 125 g/ha", "setting": "pigweed; Amaranthus retroflexus, post-emergence, 125 g ai/ha, postemergence, visual rating, scale 0 to 100 (0 no effect, 100 complete control), read-out: Plant response rating, Pigweed", "value": 90, "unit": "%"}, {"measurement": "pest or weed control at 250 g/ha", "setting": "pigweed; Amaranthus retroflexus, post-emergence, 250 g ai/ha, postemergence, read-out: Plant response rating (0 to 100), Pigweed", "value": 95, "unit": "%"}, {"measurement": "pest or weed control at 62 g/ha", "setting": "pigweed; Amaranthus retroflexus, post-emergence, Postemergence, 62 g ai/ha, scale 0 to 100 (0 no effect, 100 complete control), 13 to 15 days, read-out: Plant response rating, Pigweed", "value": 75, "unit": "%"}, {"measurement": "Morningglory plant response rating (0 to 100 scale)", "setting": "morningglory; 125 g ai/ha", "value": 60}, {"measurement": "pest or weed control at 500 g/ha", "setting": "morningglory; Ipomoea, pre-emergence, 240 h, 500 g ai/ha, 0 to 100 scale where 0 is no effect and 100 is complete control, read-out: Morningglory plant response rating", "value": 100, "unit": "%"}, {"measurement": "pest or weed control at 250 g/ha", "setting": "barnyardgrass [5]", "value": 0, "unit": "%"}, {"measurement": "Nutsedge, Yellow plant response rating", "setting": "yellow nutsedge; [6]", "value": 5}, {"measurement": "pest or weed control at 125 g/ha", "setting": "yellow nutsedge; Cyperus, post-emergence, 125 g ai/ha, postemergence, visual rating, scale 0 to 100 (0 no effect, 100 complete control), read-out: Plant response rating, Nutsedge, Yellow", "value": 5, "unit": "%"}, {"measurement": "pest or weed control at 250 g/ha", "setting": "yellow nutsedge; Cyperus, post-emergence, 250 g ai/ha, postemergence, read-out: Plant response rating (0 to 100), Nutsedge, Yellow", "value": 5, "unit": "%"}, {"measurement": "pest or weed control at 62 g/ha", "setting": "yellow nutsedge; Cyperus, post-emergence, Postemergence, 62 g ai/ha, scale 0 to 100 (0 no effect, 100 complete control), 13 to 15 days, read-out: Plant response rating, Nutsedge, Yellow", "value": 5, "unit": "%"}]}]}
